According to patent publication US5437864A, “Method of inhibiting blood coagulation in extracorporeal circulation by inhibiting human tissue factor” (The Scripps Research Institute, priority 1992, dated 1995):
Where two headings read alike, the source gives them in different places. No end group written: not given here.

What was measured:
[1] = target: T1, factor VII/VIIa (Homo sapiens, UniProt P08709); test: Inhibition of huTF-initiated coagulation by polypeptide analogs of huTFh; format: biochemical; conditions: for inhibition of huTF-initiated coagulation, dose-response (FIG. 12): non-lipidated polypeptides, various concentrations
T1 construct: from tissue
T1 sequence (P08709 61-466): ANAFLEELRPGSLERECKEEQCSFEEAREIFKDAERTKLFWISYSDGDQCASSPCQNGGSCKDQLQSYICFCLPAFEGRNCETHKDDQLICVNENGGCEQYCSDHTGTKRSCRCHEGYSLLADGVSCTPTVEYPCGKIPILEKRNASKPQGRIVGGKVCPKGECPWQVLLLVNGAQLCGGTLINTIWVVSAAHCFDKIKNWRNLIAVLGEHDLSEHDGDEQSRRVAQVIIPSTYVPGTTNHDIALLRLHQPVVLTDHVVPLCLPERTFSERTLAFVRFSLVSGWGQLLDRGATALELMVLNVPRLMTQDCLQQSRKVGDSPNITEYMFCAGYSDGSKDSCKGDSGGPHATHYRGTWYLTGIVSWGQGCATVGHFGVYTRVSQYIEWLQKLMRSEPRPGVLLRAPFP
Method: The ability of the polypeptides of the present invention to inhibit huTF-initiated coagulation were assayed by first incubating the polypeptides in the presence of factor VII/VIIa and calcium ions, and then adding this mixture to factor VII/VIIa-deficient plasma and evaluating clotting times.
Human factor VII/VIIa was isolated as described in Example 3. Ten microliters of a solution of 200 ng of this isolated factor VII/VIIa per ml of HBS/BSA was added to a solution comprising 100 ul of HBS, 20 ul of 25 mM CaCl2, and with 100 ul of TBS/Triton containing synthetic polypeptide. Numerous admixtures were so prepared which contained varying concentrations of the polypeptide and were then maintained at 37 degrees C. for 15 minutes. Relipidated tissue factor prepared as described in Example 4 was diluted in HBS/BSA such that 10 ul would yield a coagulation time of approximately 45 seconds when tested in the coagulation assay described in Example 2. The above maintained admixture was further admixed with this 10 ul dilution of relipidated huTF, with 100 ul of 25 mM CaCl2, and with 100 ul of factor VII/VIIa-deficient plasma (George King Bio-Medical, Inc., Overland Park, Kans.) diluted 1 part plasma to 1.5 parts HBS. The clotting time was then determined and plotted as described in Example 2. A prolongation of clotting time was taken to indicate inhibition of coagulation by the synthetic polypeptide. Percent inhibition was calculated as described in Example 10. Polypeptides producing at least a 30% inhibition of coagulation were considered huTFh binding site polypeptide analogs, i.e., polypeptides p26-49, p146-167 and p161-189 as shown in section I of Table 4.
Lipidated synthetic peptides were prepared in the manner described in Example 4 for relipidation of isolated huTF except that synthetic polypeptide was substituted for isolated huTF. The ratio 52 to 1 of lipid to polypeptide (w/w) was routinely utilized. Lipidated polypeptides producing at least 30% inhibition of coagulation were considered huTFh binding site polypeptide analogs, when present in lipidated form, i.e., those polypeptides shown in section II of Table 4.
The results of this study are shown in FIG. 12 and indicate that p24-35 and p152-169 are capable of inhibiting 45% and 25% respectively, of the huTF-initiated coagulation when utilized at 10 uM concentrations. It should be noted that in this study background inhibitions such as for those peptides indicated by a closed circle in FIG. 12 were lower than the study shown in Table 4. As a result, polypeptides producing at least a 20% inhibition of coagulation at a concentration of 10 uM in this study were considered huTF binding site polypeptide analogs.

[2] = target: T1, factor VII/VIIa; test: Inhibition of factor X activation on J82 cells by huTFh polypeptides; format: cell-based; conditions: for Optical Density: O.D. at 405 nm of factor Xa chromogenic product, 50 ul polypeptide solution at 100 uM, PBS control 0.960, no factor VII 0.005, significant if about 0.500 or less
Method: Fifty microliters (ul) of a solution containing a huTF polypeptide analog at 100 uM […] in TBS was added to each well of a 96-well of a 96-well flat bottom polystyrene assay plate. Then to each well was admixed 25 ul of a solution containing factor VII/VIIa isolated as described in Example 3 at a concentration of 1 nm in TBS, further admixed with 25 ul of 20 mM calcium chloride in TBS and the resulting admixture is maintained at room temperature for 30 minutes.
Human bladder cell carcinoma J82 cells were obtained from the American Type Culture Collection (ATCC HTB 1; Rockville, Md.) and cultured as described by Fair et al., J. Biol. Chem., 262:11692-11698 (1987) which methods are incorporated herein by reference.
5×10^4 J82 cells are suspended into 50 ul of TBS and admixed to each well of the polystyrene assay plate after the above maintenance period. Immediately thereafter 25 ul of factor X, isolated as described by Fair et al., J. Biol. Chem., 262:11692-11698 (1987), at a concentration of 100 nM in TBS and 50 ul of Xa chromogenic substrate S-2222 (1 mg/ml in TBS) were admixed, and the resulting admixture was maintained for two minutes at room temperature to form a chromogenic reaction product containing solution.
The amount of chromogenic product formed was quantitated by measuring the amount of optical density (O.D.) at 405 nanometers (nm) using a V-max 96 well spectrophotometer (Molecular Devices, Mountain View, Calif.). Controls with PBS in place of polypeptide or with no factor VII added were also run to establish the maximum and minimum possible O.D. values.

[3] = system: baboon TF; conditions: Taylor et al., J. Clin. Invest. (1987); cited from earlier work
[4] = system: TF; conditions: Pitlick, J. Clin. Invest., 55:175 (1975); cited from earlier work
[5] = phospholipidated peptides, 10 μM
[6] = non-phospholipidated peptides, 10 μM, read-out: Inhibition (Percent Inhibition of huTF-initiated coagulation)
[7] = Example 17 study (FIG. 12), non-lipidated, 10 uM, read-out: inhibition of huTF-initiated coagulation
[8] = phospholipidated peptides, 10 μM, read-out: Inhibition (Percent Inhibition of huTF-initiated coagulation)
[9] = non-phospholipidated peptides, 10 μM

Row | Substance | Optical Density [2] | inhibition at 10 µM [1, 6] [%] | other results
1 | H--TKSGDWKSKCFYTTDTECDLTDEIVKDVKQTY--OH (H-TKSGDWKSKCFYTTDTECDLTDEIVKDVKQTY-OH; cysteine pairing not given here) [p40-71] | 0.814 ± 0.053 | – | inhibition of huTF-initiated coagulation, dose-response (FIG. 12) [1]: no substantial inhibition; Inhibition (Percent Inhibition of huTF-initiated coagulation) [1, 5]: 65.0%
2 | H-ECDLTDEIVKDVKQTY-OH [p56-71, H--ECDLTDEIVKDVKQTY--OH] | – | 25 | –
3 | H-EPKPVNQVYTVQISTKSGDWKSKC-OH [p26-49] | 0.437 ± 0.020 | – | binding to factor VII/VIIa and inhibition of factor X activation [2]: bind to factor VII/VIIa and inhibit its ability to form a TF:VII/VIIa complex that can activate factor X
4 | H-EWEPKPVNQVYT-OH [p24-35, H--EWEPKPVNQVYT--OH] | 0.477 ± 0.017 | – | inhibition at 10 µM [1, 7]: 45%; binding to factor VII/VIIa and inhibition of factor X activation [2]: bind to factor VII/VIIa and inhibit its ability to form a TF:VII/VIIa complex that can activate factor X
5 | H-IYTLYYWKSSSSGKKTAK-OH [p152-169, H--IYTLYYWKSSSSGKKTAK--OH] | – | – | inhibition at 10 µM [1, 7]: 25%
6 | H-LARVFSYPAGNVESTGSAGEPLYENSPEFTPYLC-OH [p72-104] | 0.781 ± 0.047 | 25 | inhibition of huTF-initiated coagulation, dose-response (FIG. 12) [1]: no substantial inhibition
7 | H-SGTTNTVAAYNLTWKSTNFKTILEWEPKPV-OH [p1-30] | 1.098 ± 0.028 | 25 | inhibition at 10 µM [1, 8]: 81%
8 | activated protein C | – | – | coagulopathic response and lethal effects of LD100 concentrations of E. coli in baboons [3]: prevents the coagulopathic response and lethal effects
9 | concanavalin A | – | – | inhibition of TF activity [4]: inhibits TF activity
10 | p1-18: huTFh polypeptide; designation represents included residues of FIG. 1; sequence not printed (SGTTNTVAAYNLTWKSTN; UniProt P13726 33-50, looked up, fragment) | 1.007 ± 0.087 | – | –
11 | p11-28: huTFh polypeptide; designation represents included residues of FIG. 1; sequence not printed (NLTWKSTNFKTILEWEPK; UniProt P13726 43-60, looked up, fragment) | 0.687 ± 0.071 | – | –
12 | p26-40: phospholipidated huTFh polypeptide analog of Table 4; sequence not printed; probably p26-49 (EPKPVNQVYTVQIST; also: phospholipidated (position not given here); UniProt P13726 58-72, looked up, fragment) | – | – | Inhibition (Percent Inhibition of huTF-initiated coagulation) [1, 5]: 83.0%
13 | p40-49: huTFh polypeptide analog of Table 4; sequence not printed; probably p41-49 (TKSGDWKSKC; UniProt P13726 72-81, looked up, fragment) | – | – | Inhibition (Percent Inhibition of huTF-initiated coagulation) [1, 9]: 25.0%
14 | p41-71: huTFh polypeptide analog of Table 4; sequence not printed; probably p40-71 (KSGDWKSKCFYTTDTECDLTDEIVKDVKQTY; UniProt P13726 73-103, looked up, fragment) | – | – | Inhibition (Percent Inhibition of huTF-initiated coagulation) [1, 9]: 25.0%
15 | p50-71: phospholipidated huTFh polypeptide analog of Table 4; sequence not printed; probably p56-71 (FYTTDTECDLTDEIVKDVKQTY; also: phospholipidated (position not given here); UniProt P13726 82-103, looked up, fragment) | – | – | Inhibition (Percent Inhibition of huTF-initiated coagulation) ([1]; phospholipidated peptides, 30 μM): 73.3%

More lines, main results first:

Row | Optical Density [2] | inhibition at 10 µM [1, 6] [%] | Substance | other results
16 | 0.715 ± 0.042 | 20 | H-DSPVECMGQEKGEFREIFYIIGA-OH [p204-226] | –
17 | 0.625 ± 0.031 | 20 | H-QAVIPSRTVNRKSTDSPVEC-OH [p190-209] | –
18 | 0.507 ± 0.053 | – | H-RDVFGKDLIYTLYYWK-OH [p144-159, H--RDVFGKDLIYTLYYWK--OH] | binding to factor VII/VIIa and inhibition of factor X activation [2]: bind to factor VII/VIIa and inhibit its ability to form a TF:VII/VIIa complex that can activate factor X
19 | – | ≥ 30 | H-SSSGKKTAKTNTNEFLIDVDKGENYCFSV-OH [p161-189] | inhibition of huTF-initiated coagulation, dose-response (FIG. 12) [1]: no substantial inhibition; inhibition at 10 µM [1, 8]: 94%
20 | 0.889 ± 0.067 | 10 | H-TKVNVTVEDERTLVRRNNTFLSLRDVFGKDLIYTL-OH [p121-155] | inhibition at 10 µM [1, 8]: 55%
21 | 0.004 ± 0.001 | – | H-VFGKDLIYTLYYWKSSSSGKKT-OH [p146-167] | inhibition at 10 µM [1, 8]: 80%; binding to factor VII/VIIa and inhibition of factor X activation [2]: bind to factor VII/VIIa and inhibit its ability to form a TF:VII/VIIa complex that can activate factor X
22 | 0.818 ± 0.055 | 20 | H-YENSPEFTPYLETNLGQPTIQSFEQVGTKV-OH [p94-123] | inhibition of huTF-initiated coagulation, dose-response (FIG. 12) [1]: no substantial inhibition; inhibition at 10 µM [1, 8]: 93.7%
23 | 0.389 ± 0.035 | – | H-YWKSSSSGKKTAK-OH [p157-169, H--YWKSSSSGKKTAK--OH] | binding to factor VII/VIIa and inhibition of factor X activation [2]: bind to factor VII/VIIa and inhibit its ability to form a TF:VII/VIIa complex that can activate factor X
24 | 0.600 ± 0.023 | – | p161-190: huTFh polypeptide of Table 10; sequence not printed; probably p161-189 (SSSGKKTAKTNTNEFLIDVDKGENYCFSVQ; UniProt P13726 193-222, looked up, fragment) | –
25 | 0.619 ± 0.047 | – | p244-263: huTFh polypeptide of Table 10; sequence not printed; probably p245-263 (KCRKAGVGQSWKENSPLNVS; UniProt P13726 276-295, looked up, fragment) | –
